Results published in ChEMBL document CHEMBL4813981, “Synthesis and in vitro antibacterial activity of new aminothiazole-oximepiperidone cephalosporins” (2021).
Converted amounts (≈) assume the structure as drawn.

Key:
Type in all cases: functional
Klebsiella pneumoniae [1] = test: Antibacterial activity against ESBLs negative Carbapenem-sensitive Klebsiella pneumonia 15-2 assessed as reduction in bacterial growth
Acinetobacter baumannii [2] = test: Antibacterial activity against Carbapenem- resistant Acinetobacter baumannii 17-8 assessed as reduction in bacterial growth
Klebsiella pneumoniae [3] = test: Antibacterial activity against Carbapenem- sensitive Klebsiella pneumoniae 17-5 overexpressing extended spectrum beta-lactamases assessed as reduction in bacterial growth
Enterobacter cloacae [4] = test: Antibacterial activity against Enterobacter cloacae 17-3 assessed as reduction in bacterial growth
Klebsiella aerogenes [5] = test: Antibacterial activity against Enterobacter aerogenes 15-6 assessed as reduction in bacterial growth
Klebsiella aerogenes [6] = test: Antibacterial activity against Enterobacter aerogenes 17-2 assessed as reduction in bacterial growth
Acinetobacter baumannii [7] = test: Antibacterial activity against Carbapenem- resistant Acinetobacter baumannii 17-12 assessed as reduction in bacterial growth
Klebsiella pneumoniae [8] = test: Antibacterial activity against Carbapenem- resistant Klebsiella pneumoniae KR 15-10 assessed as reduction in bacterial growth
Escherichia coli [9] = test: Antibacterial activity against ESBLs positive Carbapenem-sensitive Escherichia coli 17-21 assessed as reduction in bacterial growth
Klebsiella pneumoniae [10] = test: Antibacterial activity against Carbapenem- resistant Klebsiella pneumoniae KR 15-4 assessed as reduction in bacterial growth
Klebsiella pneumoniae [11] = test: Antibacterial activity against ESBLs negative Carbapenem-sensitive Klebsiella pneumoniae 17-18 assessed as reduction in bacterial growth
Escherichia coli [12] = test: Antibacterial activity against Escherichia coli ATCC 25922 assessed as reduction in bacterial growth
Enterobacter cloacae [13] = test: Antibacterial activity against Enterobacter cloacae 17-6 assessed as reduction in bacterial growth
Enterobacter cloacae [14] = test: Antibacterial activity against Enterobacter cloacae 17-10 assessed as reduction in bacterial growth
Klebsiella pneumoniae [15] = test: Antibacterial activity against Carbapenem- sensitive Klebsiella pneumoniae 17-14 overexpressing extended spectrum beta-lactamases assessed as reduction in bacterial growth
Klebsiella pneumoniae [16] = test: Antibacterial activity against Carbapenem- resistant Klebsiella pneumoniae KR 15-8 assessed as reduction in bacterial growth
Enterobacter cloacae [17] = test: Antibacterial activity against Enterobacter cloacae 17-5 assessed as reduction in bacterial growth
Klebsiella aerogenes [18] = test: Antibacterial activity against Enterobacter aerogenes 15-3 assessed as reduction in bacterial growth
Escherichia coli [19] = test: Antibacterial activity against ESBLs positive Carbapenem-sensitive Escherichia coli 17-18 assessed as reduction in bacterial growth
Escherichia coli [20] = test: Antibacterial activity against ESBLs positive Carbapenem-sensitive Escherichia coli 17-6 assessed as reduction in bacterial growth
Acinetobacter baumannii [21] = test: Antibacterial activity against Carbapenem- resistant Acinetobacter baumannii 17-11 assessed as reduction in bacterial growth
Klebsiella pneumoniae [22] = test: Antibacterial activity against Carbapenem- sensitive Klebsiella pneumoniae 17-9 overexpressing extended spectrum beta-lactamases assessed as reduction in bacterial growth
Klebsiella pneumoniae [23] = test: Antibacterial activity against Carbapenem- sensitive Klebsiella pneumoniae 17-6 overexpressing extended spectrum beta-lactamases assessed as reduction in bacterial growth
Escherichia coli [24] = test: Antibacterial activity against ESBLs positive Carbapenem-sensitive Escherichia coli 17-17 assessed as reduction in bacterial growth
Pseudomonas aeruginosa [25] = test: Antibacterial activity against Carbapenem- sensitive Pseudomonas aeruginosa 17-7 assessed as reduction in bacterial growth
Enterobacter cloacae [26] = test: Antibacterial activity against Enterobacter cloacae 17-7 assessed as reduction in bacterial growth
Klebsiella pneumoniae [27] = test: Antibacterial activity against Carbapenem- sensitive Klebsiella pneumoniae 17-11 overexpressing extended spectrum beta-lactamases assessed as reduction in bacterial growth
Klebsiella pneumoniae [28] = test: Antibacterial activity against Carbapenem- resistant Klebsiella pneumoniae KR 15-12 assessed as reduction in bacterial growth
Escherichia coli [29] = test: Antibacterial activity against ESBLs positive Carbapenem-sensitive Escherichia coli 17-5 assessed as reduction in bacterial growth
Pseudomonas aeruginosa [30] = test: Antibacterial activity against Carbapenem- sensitive Pseudomonas aeruginosa 17-22 assessed as reduction in bacterial growth
Pseudomonas aeruginosa [31] = test: Antibacterial activity against Carbapenem- sensitive Pseudomonas aeruginosa 17-10 assessed as reduction in bacterial growth
Escherichia coli [32] = test: Antibacterial activity against ESBLs positive Carbapenem-sensitive Escherichia coli 17-10 assessed as reduction in bacterial growth
Klebsiella aerogenes [33] = test: Antibacterial activity against Enterobacter aerogenes 15-7 assessed as reduction in bacterial growth
Escherichia coli [34] = test: Antibacterial activity against ESBLs positive Carbapenem-sensitive Escherichia coli 17-2 assessed as reduction in bacterial growth
Escherichia coli [35] = test: Antibacterial activity against ESBLs negative Carbapenem-sensitive Escherichia coli 17-7 assessed as reduction in bacterial growth
Enterobacter cloacae [36] = test: Antibacterial activity against Enterobacter cloacae 17-8 assessed as reduction in bacterial growth
Escherichia coli [37] = test: Antibacterial activity against Escherichia coli NCTC 13353 assessed as reduction in bacterial growth
Escherichia coli [38] = test: Antibacterial activity against ESBLs positive Carbapenem-sensitive Escherichia coli 17-3 assessed as reduction in bacterial growth

C[C@@H](O)[C@H]1C(=O)N2C(C(=O)O)=C(S[C@@H]3CN[C@H](C(=O)N(C)C)C3)[C@H](C)[C@H]12 [MEROPENEM]
MIC (Klebsiella pneumoniae [1]): < 0.03 µg/mL | MIC (Acinetobacter baumannii [2]): 32 µg/mL (≈ 83.4 µM) | MIC (Klebsiella pneumoniae [3]): < 0.03 µg/mL | MIC (Enterobacter cloacae [4]): 0.06 µg/mL (≈ 0.156 µM) | MIC (Klebsiella aerogenes [5]): 0.06 µg/mL (≈ 0.156 µM) | MIC (Klebsiella aerogenes [6]): 0.06 µg/mL (≈ 0.156 µM) | MIC (Acinetobacter baumannii [7]): 16 µg/mL (≈ 41.7 µM) | MIC (Klebsiella pneumoniae [8]): > 64 µg/mL | MIC (Escherichia coli [9]): < 0.03 µg/mL | MIC (Klebsiella pneumoniae [10]): > 64 µg/mL | MIC (Klebsiella pneumoniae [11]): < 0.03 µg/mL | MIC (Escherichia coli [12]): < 0.03 µg/mL | MIC (Enterobacter cloacae [13]): < 0.03 µg/mL | MIC (Enterobacter cloacae [14]): < 0.03 µg/mL | MIC (Klebsiella pneumoniae [15]): 1 µg/mL (≈ 2.61 µM) | MIC (Klebsiella pneumoniae [16]): > 64 µg/mL | MIC (Enterobacter cloacae [17]): 0.06 µg/mL (≈ 0.156 µM) | MIC (Klebsiella aerogenes [18]): 4 µg/mL (≈ 10.4 µM) | MIC (Escherichia coli [19]): < 0.03 µg/mL | MIC (Escherichia coli [20]): < 0.03 µg/mL | MIC (Acinetobacter baumannii [21]): 32 µg/mL (≈ 83.4 µM) | MIC (Klebsiella pneumoniae [22]): 0.06 µg/mL (≈ 0.156 µM) | MIC (Klebsiella pneumoniae [23]): < 0.03 µg/mL | MIC (Escherichia coli [24]): < 0.03 µg/mL | MIC (Pseudomonas aeruginosa [25]): 0.06 µg/mL (≈ 0.156 µM) | MIC (Enterobacter cloacae [26]): 0.25 µg/mL (≈ 0.652 µM) | MIC (Klebsiella pneumoniae [27]): 0.06 µg/mL (≈ 0.156 µM) | MIC (Klebsiella pneumoniae [28]): 32 µg/mL (≈ 83.4 µM) | MIC (Escherichia coli [29]): < 0.03 µg/mL | MIC (Pseudomonas aeruginosa [30]): 1 µg/mL (≈ 2.61 µM) | MIC (Pseudomonas aeruginosa [31]): 0.25 µg/mL (≈ 0.652 µM) | MIC (Escherichia coli [32]): < 0.03 µg/mL | MIC (Klebsiella aerogenes [33]): 0.125 µg/mL (≈ 0.326 µM) | MIC (Escherichia coli [34]): < 0.03 µg/mL | MIC (Escherichia coli [35]): < 0.03 µg/mL | MIC (Enterobacter cloacae [36]): < 0.03 µg/mL | MIC (Escherichia coli [37]): < 0.03 µg/mL | MIC (Escherichia coli [38]): < 0.03 µg/mL
